Assays:
Assay in all cases: biochemical
Design in all cases: KINOMEscan active-site competition binding panel (468 kinase assays), per cent of control at 1000 nM
Details in all cases: KINOMEscan per cent of control (binding competition); read-out: Percent Control
[1] = target: AURKA (Homo sapiens, UniProt O14965)
Text: (§1) Figure S7 / Percent Control

[2] = target: PRKD2 (Homo sapiens, UniProt Q9BZL6)
Text: as §1

[3] = target: RET(M918T) (Homo sapiens, UniProt P07949, M918T)
Text: as §1

[4] = target: T1, YSK4 (Homo sapiens, UniProt Q56UN5)
T1 construct: gene MAP3K19
Text: as §1

[5] = target: T2, p38-delta (Homo sapiens, UniProt O15264)
T2 construct: gene MAPK13
Text: as §1

T1 sequence (Q56UN5 whole entry): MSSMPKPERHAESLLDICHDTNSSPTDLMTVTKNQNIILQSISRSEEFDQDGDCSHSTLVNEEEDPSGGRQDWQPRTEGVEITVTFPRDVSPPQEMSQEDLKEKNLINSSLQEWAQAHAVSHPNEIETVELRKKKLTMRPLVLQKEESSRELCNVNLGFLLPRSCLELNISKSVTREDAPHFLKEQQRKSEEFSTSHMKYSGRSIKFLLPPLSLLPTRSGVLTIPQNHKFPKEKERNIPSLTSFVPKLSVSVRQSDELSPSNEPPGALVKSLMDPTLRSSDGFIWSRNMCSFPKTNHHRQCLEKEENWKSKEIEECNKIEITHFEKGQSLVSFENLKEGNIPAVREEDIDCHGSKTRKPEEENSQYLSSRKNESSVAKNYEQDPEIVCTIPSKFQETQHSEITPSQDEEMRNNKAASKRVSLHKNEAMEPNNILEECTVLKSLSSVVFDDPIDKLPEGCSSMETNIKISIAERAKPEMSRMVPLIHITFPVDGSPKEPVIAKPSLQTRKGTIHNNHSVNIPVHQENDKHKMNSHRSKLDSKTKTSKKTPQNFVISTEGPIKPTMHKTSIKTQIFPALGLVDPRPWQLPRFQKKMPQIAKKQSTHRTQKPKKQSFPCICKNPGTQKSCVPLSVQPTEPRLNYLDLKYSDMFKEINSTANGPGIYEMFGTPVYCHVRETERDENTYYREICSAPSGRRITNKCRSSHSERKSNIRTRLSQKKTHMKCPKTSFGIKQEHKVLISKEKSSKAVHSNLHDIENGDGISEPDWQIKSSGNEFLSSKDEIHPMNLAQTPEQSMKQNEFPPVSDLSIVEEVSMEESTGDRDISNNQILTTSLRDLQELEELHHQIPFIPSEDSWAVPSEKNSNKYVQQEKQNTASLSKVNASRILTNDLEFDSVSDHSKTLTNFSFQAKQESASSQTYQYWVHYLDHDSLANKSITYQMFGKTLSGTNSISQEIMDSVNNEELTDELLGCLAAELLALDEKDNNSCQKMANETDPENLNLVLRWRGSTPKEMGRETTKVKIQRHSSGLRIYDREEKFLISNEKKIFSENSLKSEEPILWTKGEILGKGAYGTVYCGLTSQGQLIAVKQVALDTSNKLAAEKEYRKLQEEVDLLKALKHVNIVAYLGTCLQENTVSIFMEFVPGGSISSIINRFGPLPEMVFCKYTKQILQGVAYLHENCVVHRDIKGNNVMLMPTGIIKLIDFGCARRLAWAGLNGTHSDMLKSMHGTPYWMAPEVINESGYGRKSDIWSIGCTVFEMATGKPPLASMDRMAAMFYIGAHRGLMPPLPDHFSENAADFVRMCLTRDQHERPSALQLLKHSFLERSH
Sequence of RET(M918T) (P07949 whole entry M918T): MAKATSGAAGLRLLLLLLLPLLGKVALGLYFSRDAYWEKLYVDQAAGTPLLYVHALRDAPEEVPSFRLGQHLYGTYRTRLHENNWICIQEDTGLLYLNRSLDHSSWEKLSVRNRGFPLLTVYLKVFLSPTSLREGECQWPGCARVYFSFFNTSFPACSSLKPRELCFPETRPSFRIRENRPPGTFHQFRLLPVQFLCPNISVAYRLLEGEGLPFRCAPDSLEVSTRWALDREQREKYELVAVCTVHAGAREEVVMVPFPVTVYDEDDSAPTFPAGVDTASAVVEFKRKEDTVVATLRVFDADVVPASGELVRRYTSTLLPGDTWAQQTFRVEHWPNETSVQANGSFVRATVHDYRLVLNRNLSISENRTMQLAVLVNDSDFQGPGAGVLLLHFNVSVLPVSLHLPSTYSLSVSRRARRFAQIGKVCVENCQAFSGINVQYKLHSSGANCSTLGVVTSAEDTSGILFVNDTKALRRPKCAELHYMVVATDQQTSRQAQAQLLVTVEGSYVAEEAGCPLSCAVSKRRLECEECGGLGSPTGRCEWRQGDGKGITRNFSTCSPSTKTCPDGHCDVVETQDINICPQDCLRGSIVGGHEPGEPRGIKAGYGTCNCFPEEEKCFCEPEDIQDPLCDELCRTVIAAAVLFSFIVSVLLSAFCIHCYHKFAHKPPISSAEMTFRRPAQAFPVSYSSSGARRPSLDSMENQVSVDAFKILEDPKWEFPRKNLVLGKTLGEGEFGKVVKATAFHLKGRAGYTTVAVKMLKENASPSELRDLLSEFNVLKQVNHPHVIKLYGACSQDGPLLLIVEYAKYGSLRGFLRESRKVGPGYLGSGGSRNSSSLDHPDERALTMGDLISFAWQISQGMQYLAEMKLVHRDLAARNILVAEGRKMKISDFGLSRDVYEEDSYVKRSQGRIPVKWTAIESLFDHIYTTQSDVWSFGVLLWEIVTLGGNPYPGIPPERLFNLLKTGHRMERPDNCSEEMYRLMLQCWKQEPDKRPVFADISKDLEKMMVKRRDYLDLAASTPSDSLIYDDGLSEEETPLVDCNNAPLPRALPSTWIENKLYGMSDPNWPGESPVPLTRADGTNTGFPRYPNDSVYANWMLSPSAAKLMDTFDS
Sequence of AURKA (O14965 whole entry): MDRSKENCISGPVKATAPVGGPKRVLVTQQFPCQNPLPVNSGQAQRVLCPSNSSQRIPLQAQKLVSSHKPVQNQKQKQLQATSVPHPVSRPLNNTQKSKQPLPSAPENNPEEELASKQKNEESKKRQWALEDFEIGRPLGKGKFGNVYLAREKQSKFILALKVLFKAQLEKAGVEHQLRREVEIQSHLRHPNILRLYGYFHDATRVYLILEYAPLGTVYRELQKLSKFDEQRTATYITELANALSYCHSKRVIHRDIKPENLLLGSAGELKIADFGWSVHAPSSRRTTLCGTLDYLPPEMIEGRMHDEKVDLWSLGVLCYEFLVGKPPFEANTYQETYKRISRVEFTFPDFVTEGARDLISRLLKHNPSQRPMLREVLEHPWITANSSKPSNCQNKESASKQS
Sequence of PRKD2 (Q9BZL6 whole entry): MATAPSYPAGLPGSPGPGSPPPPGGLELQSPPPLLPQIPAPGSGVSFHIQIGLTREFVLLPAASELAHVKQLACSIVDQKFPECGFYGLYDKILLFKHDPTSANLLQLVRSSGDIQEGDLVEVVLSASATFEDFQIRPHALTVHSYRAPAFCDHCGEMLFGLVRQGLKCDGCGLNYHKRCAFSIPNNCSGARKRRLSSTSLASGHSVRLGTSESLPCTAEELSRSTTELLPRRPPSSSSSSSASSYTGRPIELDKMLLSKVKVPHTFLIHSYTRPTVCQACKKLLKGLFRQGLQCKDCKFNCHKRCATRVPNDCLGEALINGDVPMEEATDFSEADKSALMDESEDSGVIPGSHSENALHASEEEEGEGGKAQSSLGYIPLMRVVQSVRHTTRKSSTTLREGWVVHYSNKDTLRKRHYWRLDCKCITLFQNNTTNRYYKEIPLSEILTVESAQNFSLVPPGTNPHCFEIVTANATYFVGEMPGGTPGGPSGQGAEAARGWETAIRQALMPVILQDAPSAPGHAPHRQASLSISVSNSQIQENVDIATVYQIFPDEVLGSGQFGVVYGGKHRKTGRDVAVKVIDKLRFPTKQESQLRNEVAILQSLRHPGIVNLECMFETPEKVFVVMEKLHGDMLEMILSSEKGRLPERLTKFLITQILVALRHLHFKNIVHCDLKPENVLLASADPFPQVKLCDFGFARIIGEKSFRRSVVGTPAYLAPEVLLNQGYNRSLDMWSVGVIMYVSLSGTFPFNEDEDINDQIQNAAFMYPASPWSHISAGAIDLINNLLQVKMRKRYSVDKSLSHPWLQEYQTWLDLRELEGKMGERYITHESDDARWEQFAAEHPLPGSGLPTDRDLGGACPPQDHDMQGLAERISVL
T2 sequence (O15264 whole entry): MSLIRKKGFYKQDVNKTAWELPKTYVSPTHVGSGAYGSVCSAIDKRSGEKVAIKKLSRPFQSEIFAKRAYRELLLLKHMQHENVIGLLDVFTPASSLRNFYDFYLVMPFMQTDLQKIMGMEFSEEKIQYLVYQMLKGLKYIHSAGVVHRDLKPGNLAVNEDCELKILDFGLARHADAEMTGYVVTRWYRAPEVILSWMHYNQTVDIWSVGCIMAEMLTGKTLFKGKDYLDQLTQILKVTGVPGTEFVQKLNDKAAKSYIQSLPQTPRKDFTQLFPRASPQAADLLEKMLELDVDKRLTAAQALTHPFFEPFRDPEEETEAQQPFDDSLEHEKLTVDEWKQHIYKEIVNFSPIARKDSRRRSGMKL

With `Cn1c(=O)[nH]c2ccc(-c3cccc(C(=O)NC4CCn5ccnc5C4)c3)cc21` (centres unmarked) [Z36-MP5] the remaining binding at 1 µM [1] was 56%, the remaining binding at 1 µM [2] was 64% and the remaining binding at 1 µM [3] was 90%. The remaining binding at 1 µM [4] was 85% and the remaining binding at 1 µM [5] was 98%.

— article PMC10924921, “Mi-2β promotes immune evasion in melanoma by activating EZH2 methylation” (Nature Communications, 2024)
